What was measured:
786-0 = assay: NCI growth inhibition (SRB) assay; type: cell-based; settings: Homo sapiens, 786-0, Renal Cancer, single dose 10 µM, 48 h, read-out: Percent Growth Inhibition (GI)
Description: (§1) The antitumor assay was performed according to the protocol of the Drug Evaluation Branch, NCI, Bethesda. A 48 h drug exposure protocol was adopted, and sulforhodamine B (SRB) assay was utilized to assess the cell growth and viability, as reported earlier.
(§2) The inhibition results of tumor cell growth by the newly synthesized compounds (5a–5g) are described in Table 4. The reported measurements have been performed at the NIH National Cancer Institute, USA by a standardized assay including a panel of 60 different tumor cell lines (Supplementary Data). The following cancer cell types were included in these assays: Leukemia, non-small cell lung cancer, colon cancer, CNS cancer, melanoma, ovarian cancer, renal cancer, prostate, and breast cancer. […] Additionally, the 3,4-dimethoxy substituted compound (5b) also suffered poor activity against the cancer cell lines.

COLO 205 = assay: NCI growth inhibition (SRB) assay; type: cell-based; settings: Homo sapiens, COLO 205, Colon Cancer, single dose 10 µM, 48 h, read-out: Percent Growth Inhibition (GI)
Description: as §1, §2

HCT-116 = assay: NCI growth inhibition (SRB) assay; type: cell-based; settings: Homo sapiens, HCT-116, Colon Cancer, single dose 10 µM, 48 h, read-out: Percent Growth Inhibition (GI)
Description: as §1, §2

HOP-92 = assay: NCI growth inhibition (SRB) assay; type: cell-based; settings: Homo sapiens, HOP-92, Non-Small Cell Lung Cancer, single dose 10 µM, 48 h, read-out: Percent Growth Inhibition (GI)
Description: as §1, §2

KM12 = assay: NCI growth inhibition (SRB) assay; type: cell-based; settings: Homo sapiens, KM12, Colon Cancer, single dose 10 µM, 48 h, read-out: Percent Growth Inhibition (GI)
Description: as §1, §2

MOLT-4 = assay: NCI growth inhibition (SRB) assay; type: cell-based; settings: Homo sapiens, MOLT-4, Leukemia, single dose 10 µM, 48 h, read-out: Percent Growth Inhibition (GI)
Description: as §1, §2

NCI-H522 = assay: NCI growth inhibition (SRB) assay; type: cell-based; settings: Homo sapiens, NCI-H522, Non-Small Cell Lung Cancer, single dose 10 µM, 48 h, read-out: Percent Growth Inhibition (GI)
Description: as §1, §2

SF-539 = assay: NCI growth inhibition (SRB) assay; type: cell-based; settings: Homo sapiens, SF-539, CNS Cancer, single dose 10 µM, 48 h, read-out: Percent Growth Inhibition (GI)
Description: as §1, §2

SNB-75 = assay: NCI growth inhibition (SRB) assay; type: cell-based; settings: Homo sapiens, SNB-75, CNS Cancer, single dose 10 µM, 48 h, read-out: Percent Growth Inhibition (GI)
Description: as §1, §2

T-47D = assay: NCI growth inhibition (SRB) assay; type: cell-based; settings: Homo sapiens, T47D, Breast Cancer, single dose 10 µM, 48 h, read-out: Percent Growth Inhibition (GI)
Description: as §1, §2

UO-31 = assay: NCI growth inhibition (SRB) assay; type: cell-based; settings: Homo sapiens, UO-31, Renal Cancer, single dose 10 µM, 48 h, read-out: Percent Growth Inhibition (GI)
Description: as §1, §2

CDK2/cyclin A = biological target: T1, CDK2/cyclin A (Homo sapiens, UniProt P24941); assay: In vitro kinase inhibition assay (HotSpot, Reaction Biology); type: biochemical; settings: single dose of 10 µM; 10 µM ATP as printed; read-out: Percent Inhibition, CDK2/cyclin A
T1 construct: purchased Reaction Biology Corp
Description: (§3) The in vitro kinase inhibition assay was carried out by Reaction Biology Corp. (Reaction Biology Corp., Chester, PA, USA) Kinase HotSpot^SM service (http://www.reactionbiology.com, accessed on 15 January 2021), following the previously reported methods. (For details, see Supplementary Material).
(§4) As mentioned in the introduction, to get insights about the kinase inhibition profile of the hybrid small molecule 5a, an in vitro screening over a panel of 14 cancer-related kinases was carried out. Accordingly, 10 µM concentrations of compound 5a were used in a kinase inhibition assay over various kinase groups and families in the presence of 10 µM ATP using HotSpotSM technology. To get a comprehensive picture of the inhibitory activities of the tested compound (5a) against the kinase panel, data are illustrated in Table 1. […] Compound 5a was also able to suppress the kinase activity of the epidermal growth factor receptor (EGFR), platelet-derived growth factor receptor-alpha (PDGFRα), and cyclin-dependent kinase 2 (CDK2) with modest inhibition values of 26.99 ± 0.9, 24.0 ± 0.4, and 20.1 ± 0.1%, respectively. […] Several studies have confirmed direct relationships between the most affected kinases (FMS, LCK, LYN, and DAPK1) and different human disorders including cancer.
(§5) 5. Protocol of Kinase assay
(§6) Kinases inhibitory activities were assessed by the HotSpot assay platform, which contained specific kinase/substrate pairs along with required cofactors. Base reaction buffer: 20 mM Hepes (pH 7.5), 10 mM MgCl2, 1 mM EGTA, 0.02% Brij35, 0.02 mg/ml BSA, 0.1 mM Na3VO4, 2 mM DTT, 1% DMSO. Testing compounds were dissolved in 100% DMSO to specific concentration. The serial dilution was conducted by Integra Viaflo Assist in DMSO. The reaction mixture containing the examined compound and 33P-ATP was incubated at room temperature for 2h and radioactivity was detected by filter-binding method. Kinase activity data were expressed as the percent remaining kinase activity in test samples compared to vehicle (dimethyl sulfoxide) reactions. IC50 values and curve fits were obtained using Prism (GraphPad Software).
(§7) 6. Biology raw data for IC50 determination
(§8) Paper ID Cpd ID NSC Number

EGFR = biological target: T2, EGFR (Homo sapiens, UniProt P00533); assay: as above; type: biochemical; settings: single dose of 10 µM; 10 µM ATP as printed; read-out: Percent Inhibition, EGFR
T2 construct: purchased Reaction Biology Corp
Description: as §3, §4, §5, §6, §7, §8

KDR/VEGFR2 = biological target: T3, KDR/VEGFR2 (Homo sapiens, UniProt P35968); assay: as above; type: biochemical; settings: single dose of 10 µM; 10 µM ATP as printed; read-out: Percent Inhibition, KDR/VEGFR2
T3 construct: purchased Reaction Biology Corp
T3 sequence (P35968 20-1356): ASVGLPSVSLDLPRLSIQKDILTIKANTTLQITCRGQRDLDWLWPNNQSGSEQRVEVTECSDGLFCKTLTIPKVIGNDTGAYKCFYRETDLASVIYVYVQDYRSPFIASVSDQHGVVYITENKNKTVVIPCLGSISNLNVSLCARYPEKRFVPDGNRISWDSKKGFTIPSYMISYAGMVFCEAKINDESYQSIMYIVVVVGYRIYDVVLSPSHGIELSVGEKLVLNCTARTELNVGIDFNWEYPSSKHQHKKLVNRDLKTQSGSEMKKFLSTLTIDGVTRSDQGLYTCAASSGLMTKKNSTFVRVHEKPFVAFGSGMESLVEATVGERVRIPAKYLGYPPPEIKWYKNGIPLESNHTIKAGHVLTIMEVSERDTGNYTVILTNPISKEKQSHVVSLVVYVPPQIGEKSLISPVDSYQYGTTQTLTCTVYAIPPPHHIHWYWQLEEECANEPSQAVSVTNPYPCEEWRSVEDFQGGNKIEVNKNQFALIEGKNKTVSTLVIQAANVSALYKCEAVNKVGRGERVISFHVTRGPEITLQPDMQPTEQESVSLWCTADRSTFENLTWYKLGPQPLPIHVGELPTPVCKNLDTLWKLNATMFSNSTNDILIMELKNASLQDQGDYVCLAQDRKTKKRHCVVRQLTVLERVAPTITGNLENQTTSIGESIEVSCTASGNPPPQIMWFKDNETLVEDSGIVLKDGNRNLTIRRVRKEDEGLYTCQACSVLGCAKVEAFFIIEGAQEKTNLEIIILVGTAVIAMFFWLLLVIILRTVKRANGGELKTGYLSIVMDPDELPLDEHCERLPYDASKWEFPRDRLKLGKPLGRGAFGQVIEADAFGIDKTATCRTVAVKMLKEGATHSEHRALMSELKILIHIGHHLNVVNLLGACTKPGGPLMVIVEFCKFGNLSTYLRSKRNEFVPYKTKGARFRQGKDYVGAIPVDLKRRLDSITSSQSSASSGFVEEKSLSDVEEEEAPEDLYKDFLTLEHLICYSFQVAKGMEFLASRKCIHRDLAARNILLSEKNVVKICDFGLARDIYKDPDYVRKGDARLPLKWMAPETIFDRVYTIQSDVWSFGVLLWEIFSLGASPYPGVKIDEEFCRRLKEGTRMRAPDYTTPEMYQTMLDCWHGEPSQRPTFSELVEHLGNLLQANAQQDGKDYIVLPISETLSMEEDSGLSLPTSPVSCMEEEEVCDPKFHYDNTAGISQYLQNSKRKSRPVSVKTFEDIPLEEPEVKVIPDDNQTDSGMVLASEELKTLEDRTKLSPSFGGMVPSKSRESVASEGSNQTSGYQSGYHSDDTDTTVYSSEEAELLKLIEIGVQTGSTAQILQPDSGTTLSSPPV
Description: as §3, §4, §5, §6, §7, §8

PAK1 = biological target: T4, PAK1 (Homo sapiens, UniProt Q13153); assay: as above; type: biochemical; settings: single dose of 10 µM; read-out: Percent Inhibition, PAK1
T4 construct: purchased Reaction Biology Corp
T4 sequence (Q13153 whole entry): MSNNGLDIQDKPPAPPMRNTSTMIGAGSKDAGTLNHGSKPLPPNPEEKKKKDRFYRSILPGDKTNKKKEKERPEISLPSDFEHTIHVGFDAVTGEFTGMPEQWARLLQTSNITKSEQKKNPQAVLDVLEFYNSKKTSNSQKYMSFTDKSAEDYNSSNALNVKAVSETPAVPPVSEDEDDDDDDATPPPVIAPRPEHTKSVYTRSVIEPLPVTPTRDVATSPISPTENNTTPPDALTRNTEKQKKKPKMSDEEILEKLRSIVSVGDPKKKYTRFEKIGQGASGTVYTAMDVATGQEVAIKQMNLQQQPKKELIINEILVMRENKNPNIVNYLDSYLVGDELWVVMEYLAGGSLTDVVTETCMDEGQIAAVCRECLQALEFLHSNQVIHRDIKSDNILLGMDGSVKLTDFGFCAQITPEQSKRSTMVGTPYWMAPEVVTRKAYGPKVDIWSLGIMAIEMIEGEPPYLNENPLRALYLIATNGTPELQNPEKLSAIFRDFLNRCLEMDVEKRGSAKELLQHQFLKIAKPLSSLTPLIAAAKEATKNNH
Description: as §3, §4, §5, §6, §7, §8

PDGFRα = biological target: T5, PDGFRα (Homo sapiens, UniProt P16234); assay: as above; type: biochemical; settings: single dose of 10 µM; 10 µM ATP as printed; read-out: Percent Inhibition, PDGFRα
T5 construct: purchased Reaction Biology Corp
T5 sequence (P16234 24-1089): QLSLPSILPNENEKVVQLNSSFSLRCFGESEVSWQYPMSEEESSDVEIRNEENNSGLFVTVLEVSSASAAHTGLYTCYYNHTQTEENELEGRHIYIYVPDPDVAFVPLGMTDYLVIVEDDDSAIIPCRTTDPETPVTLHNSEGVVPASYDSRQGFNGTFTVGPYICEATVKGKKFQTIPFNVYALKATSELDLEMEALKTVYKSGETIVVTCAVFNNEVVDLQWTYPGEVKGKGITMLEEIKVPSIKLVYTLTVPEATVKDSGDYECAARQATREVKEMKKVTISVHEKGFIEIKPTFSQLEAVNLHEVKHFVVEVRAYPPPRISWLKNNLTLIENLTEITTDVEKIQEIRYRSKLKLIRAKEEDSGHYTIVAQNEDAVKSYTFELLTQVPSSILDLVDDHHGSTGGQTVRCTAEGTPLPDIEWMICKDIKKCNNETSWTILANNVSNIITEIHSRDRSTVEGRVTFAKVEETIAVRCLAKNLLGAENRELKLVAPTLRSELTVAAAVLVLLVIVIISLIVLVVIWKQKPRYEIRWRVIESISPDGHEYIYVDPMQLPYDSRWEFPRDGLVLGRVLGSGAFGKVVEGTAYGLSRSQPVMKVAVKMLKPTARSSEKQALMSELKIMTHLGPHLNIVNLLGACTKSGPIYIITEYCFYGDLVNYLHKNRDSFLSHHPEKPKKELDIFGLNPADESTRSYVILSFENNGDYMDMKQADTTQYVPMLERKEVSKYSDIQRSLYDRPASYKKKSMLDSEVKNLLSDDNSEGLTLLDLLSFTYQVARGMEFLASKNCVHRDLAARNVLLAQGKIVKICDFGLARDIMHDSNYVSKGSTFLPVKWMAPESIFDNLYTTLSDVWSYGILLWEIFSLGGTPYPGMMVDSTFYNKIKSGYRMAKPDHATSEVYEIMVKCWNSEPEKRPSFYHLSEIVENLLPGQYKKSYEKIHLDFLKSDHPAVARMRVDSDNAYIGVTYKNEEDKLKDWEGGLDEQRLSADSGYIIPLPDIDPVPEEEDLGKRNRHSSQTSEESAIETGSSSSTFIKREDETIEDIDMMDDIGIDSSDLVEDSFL
Description: as §3, §4, §5, §6, §7, §8

c-MET = biological target: T6, c-MET (Homo sapiens, UniProt P08581); assay: as above; type: biochemical; settings: single dose of 10 µM; 10 µM ATP as printed; read-out: Percent Inhibition, c-MET
T6 construct: purchased Reaction Biology Corp
T6 sequence (P08581 25-1390): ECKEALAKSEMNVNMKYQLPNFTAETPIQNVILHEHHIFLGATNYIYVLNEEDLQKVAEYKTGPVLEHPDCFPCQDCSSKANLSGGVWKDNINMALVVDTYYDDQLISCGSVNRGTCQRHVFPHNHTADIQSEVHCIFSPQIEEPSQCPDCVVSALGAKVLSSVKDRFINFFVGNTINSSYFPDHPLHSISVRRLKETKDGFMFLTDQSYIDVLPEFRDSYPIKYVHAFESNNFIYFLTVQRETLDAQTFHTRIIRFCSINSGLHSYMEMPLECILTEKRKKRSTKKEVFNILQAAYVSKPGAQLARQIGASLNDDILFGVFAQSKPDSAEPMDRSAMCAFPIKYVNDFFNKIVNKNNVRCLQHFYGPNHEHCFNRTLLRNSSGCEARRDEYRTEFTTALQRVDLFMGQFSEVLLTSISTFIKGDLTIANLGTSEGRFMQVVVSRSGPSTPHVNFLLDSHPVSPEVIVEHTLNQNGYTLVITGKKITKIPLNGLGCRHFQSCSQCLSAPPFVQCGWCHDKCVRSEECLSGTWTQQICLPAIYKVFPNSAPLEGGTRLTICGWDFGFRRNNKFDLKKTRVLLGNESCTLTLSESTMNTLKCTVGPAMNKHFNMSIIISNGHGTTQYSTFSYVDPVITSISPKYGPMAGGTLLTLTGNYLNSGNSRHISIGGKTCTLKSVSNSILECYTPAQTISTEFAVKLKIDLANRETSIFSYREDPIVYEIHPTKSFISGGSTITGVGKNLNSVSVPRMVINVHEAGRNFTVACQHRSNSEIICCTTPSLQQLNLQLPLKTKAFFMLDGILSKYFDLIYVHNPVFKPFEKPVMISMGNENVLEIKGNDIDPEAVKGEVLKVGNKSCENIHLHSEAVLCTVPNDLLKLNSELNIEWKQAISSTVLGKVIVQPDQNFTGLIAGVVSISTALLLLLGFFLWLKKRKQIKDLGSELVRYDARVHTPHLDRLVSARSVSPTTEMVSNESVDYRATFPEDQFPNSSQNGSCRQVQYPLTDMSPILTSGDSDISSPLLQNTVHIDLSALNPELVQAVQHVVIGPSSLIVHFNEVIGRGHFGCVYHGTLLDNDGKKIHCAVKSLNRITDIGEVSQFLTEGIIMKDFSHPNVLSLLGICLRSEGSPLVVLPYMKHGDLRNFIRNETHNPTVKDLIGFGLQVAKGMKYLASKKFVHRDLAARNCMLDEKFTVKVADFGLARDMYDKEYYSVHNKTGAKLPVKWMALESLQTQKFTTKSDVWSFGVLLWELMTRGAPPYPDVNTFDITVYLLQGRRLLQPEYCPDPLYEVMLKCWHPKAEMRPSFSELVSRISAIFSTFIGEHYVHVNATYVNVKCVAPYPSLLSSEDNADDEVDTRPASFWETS
Description: as §3, §4, §5, §6, §7, §8

[1] = system: panel of 60 different tumor cell lines; assay: NCI antitumor assay, panel of 60 tumor cell lines; type: cell-based; settings: single dose 10 µM, result in words
Description: as §1, §2

Compound: COc1ccc(Oc2nc(Nc3ccc(N4CCOCC4)cc3)ncc2NC(=O)c2cccc(SC)c2)cc1 [5g, N-(4-(4-Methoxyphenoxy)-2-((4-morpholinophenyl)amino)pyrimidin-5-yl)-3-(methylthio)benzamide]
- inhibition at 10 µM (786-0): 25%
- inhibition at 10 µM (COLO 205): 4.7%
- inhibition at 10 µM (HCT-116): 23.7%
- inhibition at 10 µM (HOP-92): 20.2%
- inhibition at 10 µM (KM12): 20.2%
- inhibition at 10 µM (MOLT-4): 43.1%
- inhibition at 10 µM (NCI-H522): 26.4%
- inhibition at 10 µM (SF-539): 21.1%
- inhibition at 10 µM (SNB-75): 21.5%
- inhibition at 10 µM (T-47D): 28.2%
- inhibition at 10 µM (UO-31): 43.7%

Compound: COc1ccc(Oc2nc(Nc3ccc(N4CCOCC4)cc3)ncc2NC(=O)c2cc(OC)c(OC)c(OC)c2)cc1 [5c, 3,4,5-Trimethoxy-N-(4-(4-methoxyphenoxy)-2-((4-morpholinophenyl)amino)pyrimidin-5-yl)benzamide]
- inhibition at 10 µM (786-0): 44.2%
- inhibition at 10 µM (COLO 205): 21.6%
- inhibition at 10 µM (HCT-116): 23.9%
- inhibition at 10 µM (HOP-92): 15.8%
- inhibition at 10 µM (KM12): 3.99%
- inhibition at 10 µM (MOLT-4): 31.6%
- inhibition at 10 µM (NCI-H522): 2.25%
- inhibition at 10 µM (SF-539): 7.64%
- inhibition at 10 µM (SNB-75): 3.59%
- inhibition at 10 µM (T-47D): 0.52%
- inhibition at 10 µM (UO-31): 42.3%
- melting point: 179.5 to 180.5 °C

Compound: COc1ccc(Oc2nc(Nc3ccc(N4CCOCC4)cc3)ncc2NC(=O)c2ccc3c(c2)OCO3)cc1 [5a, N-(4-(4-Methoxyphenoxy)-2-((4-morpholinophenyl)amino)pyrimidin-5-yl)benzo[d][1,3]dioxole-5-carboxamide]
- inhibition at 10 µM (CDK2/cyclin A): 20.1 ± 0.1%
- inhibition at 10 µM (EGFR): 27 ± 0.9%
- inhibition at 10 µM (KDR/VEGFR2): 7.9 ± 1.4%
- inhibition at 10 µM (PAK1): -29.1 ± 3.4%
- inhibition at 10 µM (PDGFRα): 24 ± 0.4%
- inhibition at 10 µM (c-MET): 12 ± 13.7%
- inhibition at 10 µM (786-0): 25.3%
- inhibition at 10 µM (COLO 205): 1.75%
- inhibition at 10 µM (HCT-116): 14.6%
- inhibition at 10 µM (HOP-92): 6.16%
- inhibition at 10 µM (KM12): 12.7%
- inhibition at 10 µM (MOLT-4): 31.1%
- inhibition at 10 µM (NCI-H522): 22.7%
- inhibition at 10 µM (SF-539): 4.73%
- inhibition at 10 µM (SNB-75): -3.98%
- inhibition at 10 µM (T-47D): 6.78%
- inhibition at 10 µM (UO-31): 36.7%
- melting point: 205.9 to 206.9 °C

Compound: COc1ccc(Oc2nc(Nc3ccc(N4CCOCC4)cc3)ncc2NC(=O)c2ccnc([N+](=O)[O-])c2)cc1 [5f, N-(4-(4-Methoxyphenoxy)-2-((4-morpholinophenyl)amino)pyrimidin-5-yl)-2-nitroisonicotinamide]
- inhibition at 10 µM (786-0): 5.78%
- inhibition at 10 µM (COLO 205): -14.6%
- inhibition at 10 µM (HCT-116): -0.19%
- inhibition at 10 µM (HOP-92): 1.12%
- inhibition at 10 µM (KM12): -1.85%
- inhibition at 10 µM (MOLT-4): -5.98%
- inhibition at 10 µM (NCI-H522): 9.77%
- inhibition at 10 µM (SF-539): 7.72%
- inhibition at 10 µM (SNB-75): -4.97%
- inhibition at 10 µM (T-47D): 5.93%
- inhibition at 10 µM (UO-31): 29%
- inhibitory effects on the different cancer cell lines [1]: moderate to poor
- melting point: 170 to 171 °C

Compound: COc1ccc(Oc2nc(Nc3ccc(N4CCOCC4)cc3)ncc2NC(=O)Cc2cc(OC)cc(OC)c2)cc1 [5e, 2-(3,5-Dimethoxyphenyl)-N-(4-(4-methoxyphenoxy)-2-((4-morpholinophenyl)amino)pyrimidin-5-yl)acetamide]
- inhibition at 10 µM (786-0): 0.75%
- inhibition at 10 µM (COLO 205): -22.4%
- inhibition at 10 µM (HCT-116): 0.34%
- inhibition at 10 µM (HOP-92): 4.46%
- inhibition at 10 µM (KM12): 1.32%
- inhibition at 10 µM (MOLT-4): -0.81%
- inhibition at 10 µM (NCI-H522): 8.4%
- inhibition at 10 µM (SF-539): 2.09%
- inhibition at 10 µM (SNB-75): -3.1%
- inhibition at 10 µM (T-47D): 10.2%
- inhibition at 10 µM (UO-31): 19.4%
- inhibitory effects on the different cancer cell lines [1]: moderate to poor
- melting point: 152.7 to 153.7 °C

Compound: COc1ccc(Oc2nc(Nc3ccc(N4CCOCC4)cc3)ncc2NC(=O)c2ccc(OC)c(OC)c2)cc1 [5b, 3,4-Dimethoxy-N-(4-(4-methoxyphenoxy)-2-((4-morpholinophenyl)amino)pyrimidin-5-yl)benzamide]
- inhibition at 10 µM (786-0): 17.6%
- inhibition at 10 µM (COLO 205): -2.21%
- inhibition at 10 µM (HCT-116): 6.01%
- inhibition at 10 µM (HOP-92): -1.19%
- inhibition at 10 µM (KM12): -4.34%
- inhibition at 10 µM (MOLT-4): 19.9%
- inhibition at 10 µM (NCI-H522): -3.5%
- inhibition at 10 µM (SF-539): -3.17%
- inhibition at 10 µM (SNB-75): -4.29%
- inhibition at 10 µM (T-47D): 2.41%
- inhibition at 10 µM (UO-31): 33.6%
- inhibitory effects on the different cancer cell lines [1]: moderate to poor
- melting point: 119.1 to 120.1 °C

Compound: CCOc1cc(OCC)cc(C(=O)Nc2cnc(Nc3ccc(N4CCOCC4)cc3)nc2Oc2ccc(OC)cc2)c1 [5d, 3,5-Diethoxy-N-(4-(4-methoxyphenoxy)-2-((4-morpholinophenyl)amino)pyrimidin-5-yl)benzamide]
- inhibition at 10 µM (786-0): 7.41%
- inhibition at 10 µM (COLO 205): -2.11%
- inhibition at 10 µM (HCT-116): 6.73%
- inhibition at 10 µM (HOP-92): 3.34%
- inhibition at 10 µM (KM12): 14%
- inhibition at 10 µM (MOLT-4): 38.2%
- inhibition at 10 µM (NCI-H522): 29.8%
- inhibition at 10 µM (SF-539): 8.01%
- inhibition at 10 µM (SNB-75): 19.2%
- inhibition at 10 µM (T-47D): 18.4%
- inhibition at 10 µM (UO-31): 29.9%
- inhibitory effects on the different cancer cell lines [1]: moderate to poor

Reference: paper PMC8468039, “Development of New Meridianin/Leucettine-Derived Hybrid Small Molecules as Nanomolar Multi-Kinase Inhibitors with Antitumor Activity” (Biomedicines, 2021)
